Assay [1] concerns Bronchial epithelial cells. The experiment in a line: BioMAP BE3C system (IL-1β + TNF-α + IFN-γ), scoring of readout parameters. In kind it is cell-based, human. The note with it: for PAI-1 score: desired change decrease. The source says:
(§1) Each screened compound is scored according to its modulation of the selected readout parameters. Compounds receive a positive score (score of 1) or negative score (score of 0) for each readout parameter set forth in Table 2 that is modulated in the desired direction. […] Parameters may be penalized by making the positive score a −1 for parameters where regulation is opposite to the desired direction.
(§2) Cell culture. Human umbilical vein endothelial cells (HUVEC) were pooled from multiple donors, cultured according to standard methods, and plated into microtiter plates at passage 4. Cell culture medium for all systems containing HUVEC included hydrocortisone. Coronary artery smooth muscle cells (CASM3C) and umbilical artery smooth muscle cells (HSM3C) were cultured according to standard procedures. Peripheral blood mononuclear cells (PBMC) were prepared from buffy coats from normal human donors according to standard methods. Monocyte-derived macrophages were differentiated in the presence of M-CSF for 7 d according to standard procedures. Human dermal fibroblasts were pooled from 3 donors, cultured according to standard methods, and plated confluent 24 h before stimulation. Cell culture medium for all systems containing fibroblasts and keratinocytes contained low hydrocortisone. Epidermal keratinocytes and bronchial epithelial cells from 3 donors were cultured according to standard procedures and pooled when plated into microtiter plates. For keratinocyte-fibroblast co-cultures, cells were plated simultaneously 24 h before stimulation. For bronchial epithelial cell-fibroblast co-cultures, fibroblasts were plated and cultured 48 before addition of epithelial cells, then cultured another 24 hr before stimulation. Concentrations/amounts of agents added to confluent microtiter plates to build each system: cytokines (IL-1β, 1 ng/ml; TNF-α, 5 ng/ml; IFN-γ, 20 ng/ml; IL-4, 5 ng/ml), activators (SAg, 20 ng/ml; histamine, 10 μM; zymosan, 10 μg/ml; or LPS, 2 ng/ml), growth factors (TGF-β, 5 ng/ml; EGF, bFGF, and PDGF-BB, 10 ng/ml), and PBMC (7.5×10^4 cells/well) or macrophages (3.5×10^4 cells/well).
(§3) Compounds. Compounds were prepared in the solvent directed, added 1 hr before stimulation of the cells, and were present during the 24 hr stimulation period for the measurement of parameters listed in Table 2. For proliferation, compounds added 1 hr before stimulation of the cells with cytokines, and were present during the 48 to 72 hr assay. If prepared in DMSO, the final concentration of solvent was 0.1% or less.
(§4) Readout Parameter Measurements. The levels of readout parameters were measured by ELISA. Briefly, microtiter plates are treated, blocked, and then incubated with primary antibodies or isotype control antibodies (0.01-0.5 microg/ml) for 1 hr. After washing, plates were incubated with a peroxidase-conjugated anti-mouse IgG secondary antibody or a biotin-conjugated anti-mouse IgG antibody for 1 hr followed by streptavidin-HRP for 30 min. Plates were washed and developed with TMB substrate and the absorbance (OD) was read at 450 nm (subtracting the background absorbance at 650 nm). Quantitation of TNF-alpha or PGE2 in the LPS system was done using a commercially available kit according to the manufacturer's directions. Proliferation of endothelial cells (HUVEC and CAEC), smooth muscle cells (SMC and CASMC), and PBMC (T cells) was quantitated by Alamar Blue reduction or SRB.
(§5) Data analysis. Mean OD values for each parameter were calculated for compounds run in duplicate. The mean value (or single well OD value) for each parameter in a treated sample was then divided by the mean value from an appropriate control to generate a ratio. All ratios were then log10 transformed. 95% significance prediction envelopes (grey shading in Figures) were calculated for historical controls.

Assay [2] deals with Bronchial epithelial cells. Nature of the assay: BioMAP BE4T system (IL-4 + TNF-a), scoring of readout parameters. It counts as cell-based, human. Also on record: key: 1 = modulated in desired direction, 0 = not (−1 = opposite). The note with it: for PAI-1 score: desired change decrease; for EGFR score: desired no change or increase. The protocol:
In the “BE4T” system, bronchial epithelial cells, usually primary human bronchial epithelial cells, are cultured in the presence of TNF-α and IL-4.
as §1, §2, §3, §4, §5

In assay [3] the test system is Fibroblasts. Nature of the assay: BioMAP HDF3CT system (IL-1β + TNF-α + IFN-γ + TGF-β), scoring of readout parameters. It counts as cell-based, human.
From the text: as §1, §2, §3, §4, §5

In assay [4] the test system is Fibroblasts. Nature of the assay: BioMAP HDFT system (TGF-β), scoring of readout parameters. It counts as cell-based, human. More on the design: key to PAI-1 score: 1 = modulated in desired direction, 0 = not (no penalties applied). As to conditions: HDFT; desired change decrease.
From the text: as §1
(§6) Compounds were first selected to inhibit PAI-1 in the HDFT as an indication of TBF-b signaling inhibition without being cytotoxic. […] Blank spots in Table 3 were where parameter was not assayed. Penalties were not applied for this scoring.
as §2, §3, §4
Data analysis. Mean OD values for each parameter were calculated for compounds run in duplicate. The mean value (or single well OD value) for each parameter in a treated sample was then divided by the mean value from an appropriate control to generate a ratio.

Assay [5] concerns Fibroblasts. The experiment in a line: BioMAP HDF3CGF system (IL-1β + TNF-α + IFN-γ + EGF + bFGF + PDGFbb), scoring of readout parameters. As to conditions: for PAI-1 score: desired change decrease; for MMP-1 score: desired change increase; for EGFR score: desired no change or increase. In kind it is cell-based, human.
Procedure: In the “HDF-3CGF” system, dermal fibroblast cells, usually primary human dermal fibroblast cells are cultured alone or in the presence of lung epithelial cells, usually primary human lung epithelial cells, with two or more factors selected from: TNF, IL-1, IFNγ, EGF, bFGF+HSPG (heparan sulfate proteoglycan), and PDGFbb. In some embodiments three or more factors are present, four or more, five or more, or all six factors are present.
Human neonatal dermal fibroblasts (HDFn) or adult lung fibroblasts (HDFp) or fibroblasts from tissues such as liver, heart, or kidney are used. Cells are cultured at 3×10^4 cells/ml in DMEM/F12 (50/50) from Cellgro, supplemented with LSGS kit (from Cascade Biologics); fetal bovine serum, 2% v/v, hydrocortisone 100 nM, human epidermal growth factor 10 ng/ml, basic fibroblast growth factor 3 ng/ml and heparin 10 μg/ml, and penicillin/streptomycin amphotericin B solution (PSA), until confluency. Medium is replaced with DMEM/F12 with only penicillin/streptomycin amphotericin B solution (PSA), then 24 hours later, the following are applied:
After another 24, 48 or 72 hours incubation (37° C., 5% CO2) the cultures are evaluated for the following parameters: ICAM, VCAM, CD40, CD90, IP-10, MCP-1, Collagen I, Mig, m-CSF, TIMP-2, PAI-I, IL-8, Collagen III, HLA-DR, MMP-1, MMP-9, proliferation, TGF-b1, eotaxin-3, decorin, alpha-SMC, MLCK, I-TAC, EGFR, TIMP-1.
Cell culture. […] Human dermal fibroblasts were pooled from 3 donors, cultured according to standard methods, and plated confluent 24 h before stimulation. Cell culture medium for all systems containing fibroblasts and keratinocytes contained low hydrocortisone. […] Concentrations/amounts of agents added to confluent microtiter plates to build each system: cytokines (IL-1β, 1 ng/ml; TNF-α, 5 ng/ml; IFN-γ, 20 ng/ml; IL-4, 5 ng/ml), activators (SAg, 20 ng/ml; histamine, 10 μM; zymosan, 10 μg/ml; or LPS, 2 ng/ml), growth factors (TGF-β, 5 ng/ml; EGF, bFGF, and PDGF-BB, 10 ng/ml), and PBMC (7.5×10^4 cells/well) or macrophages (3.5×10^4 cells/well).
The subject of assay [6] is Peripheral Blood Mononuclear Cells + Umbilical Vein Endothelial Cells. The experiment in a line: BioMAP LPS system (TLR4), scoring of readout parameters. In kind it is cell-based, human. As to conditions: LPS (by position); desired change decrease.
From the text: as §1, §2, §3, §4, §5

Assay [7] relates to Umbilical Vein Endothelial Cells. The experiment in a line: BioMAP 3C system (IL-1β + TNF-α + IFN-γ), scoring of readout parameters. In kind it is cell-based, human. The note with it: for HLA-DR score: desired change decrease; for uPAR score: desired change increase.
From the text: as §1, §2, §3, §4, §5

The subject of assay [8] is human primary cells. Nature of the assay: Total score for desired parameter modulation over the BioMAP systems of Table 1. It counts as cell-based. As to conditions: penalties not applied.
From the text: as §1
The relative importance of each parameter may be weighted by the screener to select those parameters of greatest interest for a particular application.
as §6
BioMAP Systems are designed to model complex human disease biology in a practical in vitro format. This is achieved by stimulating human primary cells (single cell type or defined mixtures of cell types) such that multiple disease-relevant signaling pathways are simultaneously active. The choice of cell types and stimulations is guided by the knowledge of disease biology and mechanisms. Incorporating appropriate cell types and stimulating signaling pathways relevant to disease states allows association of biological activities detected in BioMAP Systems with disease processes. Drug effects are then recorded by measuring biologically meaningful protein readouts that provide coverage of biological space of interest (e.g., inflammation, tissue remodeling) and allow discrimination between different drug classes tested.
as §2, §3
Readout Parameter Measurements. The levels of readout parameters were measured by ELISA.

For assay [9] the following is noted: PMID 17023731, PMID 8421998; cited from earlier work.

Results on five compounds are retold here after US20100093613A1, “METHODS FOR IDENTIFYING AGENTS AND THEIR USE FOR THE PREVENTION OR STABILIZATION OF FIBROSIS” (priority 2007, published 2010).

Regarding `Cc1cc(C2CCCCC2)n(O)c(=O)c1.NCCO` [Ciclopirox Ethanolamine], in assay [1], the HLA-DR score was 0, the MMP-1 score came to 0 and the PAI-1 score was found to be 0. For the same compound, in assay [2], the uPA score is recorded as 0, the PAI-1 score is 0 and the EGFR score is given as 1. In addition, the MMP-1 score in [3] turned out to be 0. In [4], this compound yielded a PAI-1 score of 1. Besides, in assay [5], the PAI-1 score is 1, the MMP-1 score was 0 and the EGFR score is 0. Moreover, the TF score in [6] came out at 0. Further, in [7], the HLA-DR score is 0 and the uPAR score was determined as 0. Further, the “Score (Fraction correctly modulated parameters out of 45-58 total)” value in assay [8] was found to be 0.31.

Take `Cc1[nH]ccc2c1[nH]c1cc(=O)ccc12` [Harmol]: in [1], the HLA-DR score stood at 0, the MMP-1 score was found to be 0 and the PAI-1 score was found to be 1. Also, in assay [2], the uPA score worked out at 0, the PAI-1 score came to 0 and the EGFR score was determined as 0. In assay [3], the MMP-1 score is 0. The compound also yielded a PAI-1 score in [4] of 1. In assay [5], the PAI-1 score worked out at 1, the MMP-1 score worked out at 0 and the EGFR score is on record as 0. In addition, in [6], the TF score is recorded as 1. For the same compound, in assay [7], the HLA-DR score came to 0 and the uPAR score is given as 0. Besides, in assay [8], the “Score (Fraction correctly modulated parameters out of 45-58 total)” value came out at 0.29.

`COc1cc(/C=C/C(=O)N2CCC=CC2=O)cc(OC)c1OC` [Piperlongumine]: the HLA-DR score in assay [1] and in assay [7] was 0 each time. Moreover, the MMP-1 score in assay [1], in assay [3] and in assay [5] was 0 in each case. For the same compound, the PAI-1 score in assay [1] is recorded as 0; in [2], 0; in assay [4] it was 1; in assay [5] it was 1. Further, in assay [2], the uPA score was determined as 0. Moreover, the EGFR score in [2] and in [5] was 0 each time. The TF score in assay [6] turned out to be 1. Also, in assay [7], the uPAR score came to 0. Also, the “Score (Fraction correctly modulated parameters out of 45-58 total)” value in [8] worked out at 0.47.

Take `C=C(NC(=O)C(=C)NC(=O)c1csc(C2=N[C@@H]3c4csc(n4)[C@H]4NC(=O)c5csc(n5)[C@H]([C@](C)(O)[C@@H](C)O)NC(=O)[C@H]5CSC(=N5)/C(=C/C)NC(=O)[C@H]([C@@H](C)O)NC(=O)c5csc(n5)[C@]3(CC2)NC(=O)[C@H](C)NC(=O)C(=C)NC(=O)[C@H](C)NC(=O)[C@H]([C@@H](C)CC)N[C@@H]2C=Cc3c([C@H](C)O)cc(nc3[C@H]2O)C(=O)O[C@@H]4C)n1)C(N)=O` [Thiostrepton]: in assay [1], the HLA-DR score turned out to be 0, the MMP-1 score is reported as 0 and the PAI-1 score is 0. Besides, in assay [2], the uPA score came to 0, the PAI-1 score stood at 0 and the EGFR score was found to be 1. For the same compound, the MMP-1 score in [3] came to 0. For the same compound, the PAI-1 score in assay [4] is listed as 1. In assay [5], the PAI-1 score is given as 1, the MMP-1 score is on record as 0 and the EGFR score worked out at 0. Also, in assay [6], the TF score came to 1. For the same compound, in assay [7], the HLA-DR score is 0 and the uPAR score is recorded as 0. In addition, the “Score (Fraction correctly modulated parameters out of 45-58 total)” value in [8] is given as 0.42.

Regarding `CC(=O)S[C@@H]1CC2=CC(=O)CC[C@]2(C)[C@H]2CC[C@@]3(C)[C@@H](CC[C@@]34CCC(=O)O4)[C@H]12` [spironolactone], the “Score (Fraction correctly modulated parameters out of 45-58 total)” value in assay [8] was “high scores”. Besides, the anti-fibrotic activity result in assay [9] is “known anti-fibrotic activity”.
